Results as given in US12139477B2, “Compounds, salts thereof and methods for treatment of diseases” (ACADIA PHARMACEUTICALS INC., priority 2017, dated 2024).

Assays:
5HT2A = 5HT2A (Homo sapiens, UniProt P28223); assay: Receptor Selection and Amplification (R-SAT) functional assay; format: cell-based; parameters: expressed in transfected cells; host or cells: NIH3T3 cells, pSI mammalian expression vector; settings: NIH3T3 cells; Ki from IC50 by Cheng and Prussoff; read-out: 5-HT2a (pKi) (R-SAT) (converted)
Sequence of 5HT2A (P28223 whole entry): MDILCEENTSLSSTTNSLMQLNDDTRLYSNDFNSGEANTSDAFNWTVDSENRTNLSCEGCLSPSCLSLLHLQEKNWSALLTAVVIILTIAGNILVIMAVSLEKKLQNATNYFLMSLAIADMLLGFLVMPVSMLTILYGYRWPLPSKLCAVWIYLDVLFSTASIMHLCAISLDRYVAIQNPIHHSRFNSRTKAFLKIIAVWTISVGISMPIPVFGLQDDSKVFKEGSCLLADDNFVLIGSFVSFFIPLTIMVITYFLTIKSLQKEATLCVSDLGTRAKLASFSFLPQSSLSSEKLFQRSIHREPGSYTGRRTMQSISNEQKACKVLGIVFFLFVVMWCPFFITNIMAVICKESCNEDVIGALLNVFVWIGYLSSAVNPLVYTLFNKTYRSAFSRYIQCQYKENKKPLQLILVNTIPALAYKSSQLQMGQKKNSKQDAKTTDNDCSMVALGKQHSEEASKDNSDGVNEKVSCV
Description: Receptor Selection and Amplification (R-SAT) Assays. […] The IC50 determined in the RSAT assay was converted into a Ki value using the method of Cheng and Prussoff, Biochem Pharmacol., 1973 Dec. 1; 22(23):3099-108. pKi is the negative of the log(Ki).

hERG channel = molecular target: T1, hERG channel (Homo sapiens, UniProt Q12809); assay: hERG assay, whole cell recordings in CHO cells (AVIVA); format: cell-based; settings: CHO cells stably expressing hERG, pH 7.4
T1 construct: host or cells: CHO cells, stably transfected
T1 sequence (Q12809 whole entry): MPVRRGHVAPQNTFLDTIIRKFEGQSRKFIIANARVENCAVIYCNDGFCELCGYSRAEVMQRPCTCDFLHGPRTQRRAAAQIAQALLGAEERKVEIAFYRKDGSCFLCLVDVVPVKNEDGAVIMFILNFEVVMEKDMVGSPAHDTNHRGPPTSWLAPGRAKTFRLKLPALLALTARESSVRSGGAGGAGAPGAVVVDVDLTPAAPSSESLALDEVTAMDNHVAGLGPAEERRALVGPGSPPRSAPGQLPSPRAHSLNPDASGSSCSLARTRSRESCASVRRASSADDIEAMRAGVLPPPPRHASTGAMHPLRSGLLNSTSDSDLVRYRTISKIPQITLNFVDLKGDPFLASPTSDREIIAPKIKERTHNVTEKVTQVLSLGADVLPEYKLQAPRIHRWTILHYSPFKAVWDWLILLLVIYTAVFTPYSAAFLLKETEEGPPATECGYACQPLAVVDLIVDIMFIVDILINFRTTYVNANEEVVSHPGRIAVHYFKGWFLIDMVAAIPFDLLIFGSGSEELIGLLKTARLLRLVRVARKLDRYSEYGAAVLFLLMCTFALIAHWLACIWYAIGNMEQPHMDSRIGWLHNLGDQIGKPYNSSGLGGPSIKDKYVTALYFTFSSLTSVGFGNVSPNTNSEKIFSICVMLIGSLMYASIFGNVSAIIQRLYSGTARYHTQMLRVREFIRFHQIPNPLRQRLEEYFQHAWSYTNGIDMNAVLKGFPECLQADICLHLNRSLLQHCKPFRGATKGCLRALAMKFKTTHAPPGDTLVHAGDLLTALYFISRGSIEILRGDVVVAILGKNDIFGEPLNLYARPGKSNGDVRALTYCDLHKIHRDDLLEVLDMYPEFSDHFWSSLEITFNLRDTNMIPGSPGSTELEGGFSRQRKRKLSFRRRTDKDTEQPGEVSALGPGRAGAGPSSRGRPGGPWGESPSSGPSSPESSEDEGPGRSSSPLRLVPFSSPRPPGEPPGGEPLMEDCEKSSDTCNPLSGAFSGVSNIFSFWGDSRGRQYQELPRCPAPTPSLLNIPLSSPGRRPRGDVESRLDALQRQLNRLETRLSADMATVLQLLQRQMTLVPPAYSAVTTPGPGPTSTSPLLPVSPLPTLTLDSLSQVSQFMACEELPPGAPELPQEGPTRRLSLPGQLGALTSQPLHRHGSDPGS
Experimental: The most common mechanism for these adverse events is the inhibition of one or more cardiac potassium channels, in particular hERG. This current is important for cardiac myocyte repolarization and is a common target for drugs that prolong the QT interval. Test articles in this study were therefore characterized to determine their ability to inhibit the hERG channel. Ion channel activity was measured at AVIVA Biosciences Corporation (San Diego, CA), using a stably transfected Chinese Hamster Ovary (CHO) cell line expressing the hERG mRNA.
Cells: AVIVA's CHO cell line, which stably expresses hERG channels, was used for the study. Cells were cultured in DMEM/F12 containing 10% FBS, 1% penicillin/streptomycin and 500 μg/ml G418. Before testing, cells were harvested using Accumax (Innovative Cell Technologies).
Solutions: For electrophysiological recordings, the following solutions were used: External Solution: 2 mM CaCl2); 2 mM MgCl2; 4 mM KCl; 150 mM NaCl; 10 mM Glucose; 10 mM HEPES; 305-315 mOsm; pH 7.4 (adjusted with 5M NaOH); Internal Solution: 140 mM KCl; 10 mM MgCl2; 6 mM EGTA; 5 mM HEPES-Na; 5 mM ATP-Mg; 295-305 mOsm; pH 7.25 (adjusted with 1M KOH).
Electrophysiology: Whole cell recordings were performed using PX 7000A (Axon Instruments) with AVIVA's SealChip™ technology. Cells were voltage clamped at a holding potential of −80 mV. The hERG current was then activated by a depolarizing step to −50 mV for 300 ms. This first step at −50 mV was used as a baseline for measuring peak amplitude of the tail current. Next, a voltage step to +20 mV was applied for 5 s to activate the channels. Finally, a step back to −50 mV for 5 s removed activation and the deactivating tail current was recorded.
Test Article Handling and Dilutions: All test articles were prepared from 10 mM DMSO stock solutions provided by Sponsor. Solutions were mixed by sonication for 20 min, followed by vigorous vortexing. Prior to testing, compounds were diluted to test concentrations in glass vials using External Solution. Dilutions were prepared no longer than 20 min prior to use.
Electrophysiology Procedures: After achieving whole cell configuration, cells were monitored for 90 s to assess stability and then washed with External Solution for 66 s. The voltage protocol previously described was then applied to the cells every 12 s throughout the procedure. Only stable cells with recording parameters above threshold (see Quality Control section) were allowed to enter the drug addition procedure. External solution containing 0.1% DMSO (vehicle) was applied to the cells to establish a baseline. […] Test article solutions were added to cells in 4 separate additions. Cells were kept in test solution until effect of the test article reached steady state, to a maximum of 12 min. Next, 1 μM cisapride (positive control) was added. Finally, washout with External Solution was performed until the recovery current reached steady state.
Data Analysis: Data analysis was performed using DataXpress (Axon Instruments), Clampfit (Axon Instruments) and Origin (OriginLab Corporation) software.

Ki (5HT2A) [nM] | Structure (SMILES) | inhibition at 1 µM (hERG channel) [%]
2.51 | CC(C)COc1ccc(CNC(=O)N(Cc2ccc(F)cc2F)C2CCNCC2)cc1 [Example 4, 1-[(2,4-difluorophenyl)methyl]-3-{[4-(2-methylpropoxy)phenyl]methyl}-1-(piperidin-4-yl)urea] | 11
2 | CC(C)COc1ccc(CNC(=O)N(Cc2ccc(F)cc2)C2CCN(C)CC2)cc1F [Example 6, 3-{[3-fluoro-4-(2-methylpropoxy)phenyl]methyl}-1-[(4-fluorophenyl)methyl]-1-(1-methylpiperidin-4-yl)urea] | 70
2 | CC(C)COc1ccc(CNC(=O)N(Cc2ccc(F)cc2)C2CCN(C)CC2)c(F)c1 [Example 7, 3-{[2-fluoro-4-(2-methylpropoxy)phenyl]methyl}-1-[(4-fluorophenyl)methyl]-1-(1-methylpiperidin-4-yl)urea] | 87
0.794 | CN1CCC(N(Cc2ccc(F)cc2F)C(=O)NCc2ccc3c(c2)CC(C)(C)O3)CC1 [Example 8, 1-[(2,4-difluorophenyl)methyl]-3-[(2,2-dimethyl-2,3-dihydro-1-benzofuran-5-yl)methyl]-1-(1-methylpiperidin-4-yl)urea] | 22
7.94 | CN1CCC(N(Cc2ccc(F)cc2F)C(=O)NCc2ccc3c(c2)C(C)(C)CO3)CC1 [Example 9, 1-[(2,4-difluorophenyl)methyl]-3-[(3,3-dimethyl-2,3-dihydro-1-benzofuran-5-yl)methyl]-1-(1-methylpiperidin-4-yl)urea] | 63
1 | CN1CCC(N(Cc2ccc(F)cc2F)C(=O)NCc2ccc3c(c2)CCO3)CC1 [Example 10, 1-[(2,4-difluorophenyl)methyl]-3-[(2,3-dihydro-1-benzofuran-5-yl)methyl]-1-(1-methylpiperidin-4-yl)urea] | 10
0.0794 | CC(C)COc1ccc(CNC(=O)N(Cc2ccc(F)cc2O)C2CCN(C)CC2)cc1 [Example 13, 1-[(4-fluoro-2-hydroxyphenyl)methyl]-1-(1-methylpiperidin-4-yl)-3-{[4-(2-methylpropoxy)phenyl]methyl}urea] | 34
1.58 | CC(C)COc1ccc(CNC(=O)N(Cc2ccc(F)cc2)C2CCN(C)CC2)c(O)c1 [Example 14, 1-[(4-fluorophenyl)methyl]-3-{[2-hydroxy-4-(2-methylpropoxy)phenyl]methyl}-1-(1-methylpiperidin-4-yl)urea] | 77
3.16 | CN1CCC(N(Cc2ccc(F)cc2F)C(=O)NCc2ccc(OCCF)cc2)CC1 [Example 15, 1-[(2,4-difluorophenyl)methyl]-3-{[4-(2-fluoroethoxy)phenyl]methyl}-1-(1-methylpiperidin-4-yl)urea] | 19
2 | CCOc1ccc(CNC(=O)N(Cc2ccc(F)cc2F)C2CCN(C)CC2)cc1 [Example 16, 1-[(2,4-difluorophenyl)methyl]-3-[(4-ethoxyphenyl)methyl]-1-(1-methylpiperidin-4-yl)urea] | 29
1.58 | C=CCOc1ccc(CNC(=O)N(Cc2ccc(F)cc2F)C2CCN(C)CC2)cc1 [Example 19, 3-(4-(allyloxy)benzyl)-1-(2,4-difluorobenzyl)-1-(1-methylpiperidin-4-yl)urea] | 33
1.58 | CN1CCC(N(Cc2ccc(F)cc2F)C(=O)NCc2ccc3occc3c2)CC1 [Example 20, 3-[(1-benzofuran-5-yl)methyl]-1-[(2,4-difluorophenyl)methyl]-1-(1-methylpiperidin-4-yl)urea] | 30
– | Cc1nc2cc(CNC(=O)N(Cc3ccc(F)cc3F)C3CCN(C)CC3)ccc2o1 [Example 22] | 10
3.98 | Cc1noc2ccc(CNC(=O)N(Cc3ccc(F)cc3F)C3CCN(C)CC3)cc12 [Example 28] | 32
– | CN1CCC(N(Cc2ccc(F)cc2F)C(=O)NCc2ccc3c(c2)n(C)c(=O)n3C)CC1 [Example 40] | 9
– | CN1CCC(N(Cc2ccc(F)cc2F)C(=O)NCc2ccc3cn[nH]c3c2)CC1 [Example 41] | 23
39.8 | CN1CCC(N(Cc2ccc(F)cc2F)C(=O)NCc2ccc3c(c2)OCCOC3)CC1 [Example 52] | 8
– | CN1CCC(N(Cc2ccc(F)cc2F)C(=O)NCc2ccc3c(c2)ncn3C)CC1 [Example 55] | 10
15.8 | CC(C)Oc1ccc(CNC(=O)N(Cc2ccc(F)cc2Cl)C2CCN(C)CC2)cc1 [Example 61] | 23
79.4 | CC(C)COc1ccc(CNC(=O)N(Cc2ccc(F)cc2Cl)C2CCN(C)CC2)cc1 [Example 62] | 32
3.98 | CCCOc1ccc(CNC(=O)N(Cc2ccc(F)cc2F)C2CCNCC2)cc1 [Example 76, 1-[(2,4-difluorophenyl)methyl]-1-(piperidin-4-yl)-3-[(4-propoxyphenyl)methyl]urea; Trifluoroacetic Acid] | 12
0.316 | CC(=O)Oc1cc(F)ccc1CN(C(=O)NCc1ccc(OCC(C)C)cc1)C1CCN(C)CC1 [Example 92, 5-fluoro-2-{[1-(1-methylpiperidin-4-yl)({[4-(2-methylpropoxy)-phenyl]methyl}carbamoyl)amino]methyl}phenyl acetate; Trifluoroacetic Acid] | 45
50.1 | CN1CCC(N(Cc2ccc(F)cc2F)C(=O)NCc2ccc3c(c2)COC3)CC1 [Example 95, 1-[(2,4-difluorophenyl)methyl]-3-[(1,3-dihydro-2-benzofuran-5-yl)methyl]-1-(1-methylpiperidin-4-yl)urea; Trifluoroacetic Acid] | 8
3.16 | COc1cc(CNC(=O)N(Cc2ccc(F)cc2F)C2CCN(C)CC2)ccc1Cl [Example 98, 3-[(4-chloro-3-methoxyphenyl)methyl]-1-[(2,4-difluorophenyl)methyl]-1-(1-methylpiperidin-4-yl)urea; Trifluoroacetic Acid] | 62
126 | CC(C)COc1ccc(CNC(=O)N(Cc2ccc(Cl)cc2Cl)C2CCN(C)CC2)cc1 [Example 107, 1-[(2,4-dichlorophenyl)methyl]-1-(1-methylpiperidin-4-yl)-3-{[4-(2-methylpropoxy)phenyl]methyl}urea] | 43
0.316 | Cc1ccc(CN(C(=O)NCc2ccc(OC(C)C)cc2)C2CCN(C)CC2)c(F)c1 [Example 115, 1-[(2-fluoro-4-methylphenyl)methyl]-1-(1-methylpiperidin-4-yl)-3-{[4-(propan-2-yloxy)phenyl]methyl}urea; Trifluoroacetic Acid] | 49
3.98 | COc1ccc(CNC(=O)N(Cc2ccc(F)cc2F)C2CCN(C)CC2)cc1 [Example 125, 3-[(2,4-difluorophenyl)methyl]-1-[(4-methoxyphenyl)methyl]-3-(1-methylpiperidin-4-yl)urea] | 17
– | COc1cc(F)c(F)cc1CN(C(=O)NCc1ccc(OC(C)C)cc1)C1CCN(C)CC1 [Example 138, 1-[(4,5-difluoro-2-methoxyphenyl)methyl]-1-(1-methylpiperidin-4-yl)-3-{[4-(propan-2-yloxy)phenyl]methyl}urea; Trifluoroacetic Acid] | 13

Structure (SMILES) | Ki (5HT2A) [nM] | inhibition at 1 µM (hERG channel) [%]
CN1CCC(N(Cc2ccc(F)cc2F)C(=O)NCc2ccc(OC(C)(C)C)cc2)CC1 [Example 18, 3-{[4-(tert-butoxy)phenyl]methyl}-1-[(2,4-difluorophenyl)methyl]-1-(1-methylpiperidin-4-yl)urea] | 0.316 | 17
